Patent US20230332232A1, “COMPOSITIONS AND METHODS FOR DIAGNOSING AND TREATING A DYSTONIA” (Duke University, priority 2020, published 2023)

System: DYT1 knockin (Tor1a^delGAG/+) murine embryonic fibroblasts (MEFs)
Test: Untargeted LC/MS/MS proteomics of EVs from DYT1 MEFs exposed 24 hours to drug, compared with untreated DYT1 (Het) MEFs
Type: cell-based, mouse
Protocol: Methods for isolation and purification of exosomes and extracellular vesicles (EV) were extensively reviewed. Experiments were performed to arrive at a robust and reproducible protocol. The protocol used herein is that set forth in Théry et al, 2006, which is incorporated by reference for it teaching of this protocol. This protocol involves depleting serum-derived EVs from cell culture media by overnight ultracentrifugation and exchanging media for 1% FBS EV-depleted media. Media is then collected from cells following a 24-hour conditioning period and EVs are isolated by 18-hour ultracentrifugation at 100,000 g (FIG. 1A).
EVs were isolated from media of cultured murine embryonic fibroblasts (MEFs) prepared in-house according to protocols described by Xu 2005 from DYT1 knockin mice (Tor1a^delGAG/+) (Goodchild R E, et al. (2005) Neuron. 48:923-932) and littermate wild-type (WT) controls. The cultured MEFs from the DYT1 mice were exposed for 24 hours to Ritonavir (RTV) while the MEFs from WT mice were exposed to vehicle, ISRIB, or Salubrinal (SAL). The EVs isolated from these WT cells and DYT1 were characterized by untargeted proteomics and RNA-seq to identify differentially expressed proteins and RNAs as candidate biomarkers. Experimenter and Proteomics core staff were blinded to genotype of cell cultures throughout preparation and analysis phases.
Samples were first normalized to 20 μg and spiked with undigested casein at a total of 40 fmol/μg, 80 fmol/μg, or 160 fmol/μg, then reduced with 10 mM dithiolthreitol for 30 minute at 80° C. and alkylated with 20 mM iodoacetamide for 30 minutes at room temperature. Next, the samples were supplemented with a final concentration of 1.2% phosphoric acid and 741 μL of S-Trap (Protifi) binding buffer (90% MeOH/100 mM […]). Proteins were trapped on the S-Trap, digested using 20 ng/μL sequencing grade trypsin (Promega) for 1 hour at 47° C., and eluted using 50 mM TEAB, followed by 0.2% FA, and lastly using 50% CAN/0.2% FA. All samples were then lyophilized to dryness and resuspended in 40 μL 1% TFA/2% acetonitrile containing 12.5 fmol/μL yeast alcohol dehydrogenase (ADH_YEAST). A QC Pool was created from 3 uL of each sample. All QC Pools were run periodically throughout the acquisition period.
Quantitative LC/MS/MS was performed on 2 μL of each sample, using a nanoAcquity UPLC system (Waters Corp) coupled to a Thermo Orbitrap Fusion Lumos high resolution accurate mass tandem mass spectrometer (Thermo) via a nanoelectrospray ionization source. Briefly, the sample was first trapped on a Symmetry C18 20 mm×180 μm trapping column (5 μL/min at 99.9/0.1 v/v water/acetonitrile), after which the analytical separation was performed using a 1.8 μm Acquity HSS T3 C18 75 μm×250 mm column (Waters Corp.) with a 90 minute linear gradient of 5% to 30% acetonitrile with 0.1% formic acid at a flow rate of 400 nanoliters/minute (nL/min) with a column temperature of 55° C. Data collection on the Fusion Lumos mass spectrometer was performed in a data-dependent acquisition (DDA) mode of acquisition with a r=120,000 (@ m/z 200) full MS scan from m/z 375-1500 with a target AGC value of 2e5 ions. MS/MS scans were acquired at Rapid scan rate (Ion Trap) with an AGC target of 5e3 ions and a max injection time of 100 ms. The total cycle time for MS and MS/MS scans was 2 seconds. A 20 second dynamic exclusion was employed to increase depth of coverage. The total analysis cycle time for each sample injection was approximately 2 hours.

## CC(C)c1nc(CN(C)C(=O)N[C@H](C(=O)N[C@@H](Cc2ccccc2)C[C@H](O)[C@H](Cc2ccccc2)NC(=O)OCc2cncs2)C(C)C)cs1 [RTV, Ritonavir]
DYT1 cells, 363 proteins of the DYT1 Genotype Dependent Differences subset
  direction of modulated EV protein expression: modulated expression in a therapeutic direction
EV protein A2AVA0 Sushi, von Willebrand factor type A, EGF and pentraxin domain-containing protein 1
  Abs Z Score Sum (Geno + RTV): 2.64
EV protein Akr1b1 (P45376)
  Abs Z Score Sum (Geno + RTV): 8.44
EV protein Aldh2 (P47738)
  Abs Z Score Sum (Geno + RTV): 25.29
  RTV Direction Opposite dE?: yes
EV protein C1qtnf3 (Q9..)
  Abs Z Score Sum (Geno + RTV): 6.95
EV protein Cnn3 (Q9DAW9)
  Abs Z Score Sum (Geno + RTV): 13.28
  RTV Direction Opposite dE?: yes
EV protein Cnot1 (Q6ZQ08)
  Abs Z Score Sum (Geno + RTV): 12.30
  RTV Direction Opposite dE?: yes
EV protein Col5A1 Q88207
  Abs Z Score Sum (Geno + RTV): 5.55
EV protein Coph2 Q55029
  Abs Z Score Sum (Geno + RTV): 9.40
EV protein Cryab (P23927)
  Abs Z Score Sum (Geno + RTV): 5.18
  RTV Direction Opposite dE?: yes
EV protein Cxadr (P97792)
  Abs Z Score Sum (Geno + RTV): 16.73
  RTV Direction Opposite dE?: yes
EV protein D3YXG0
  RTV Direction Opposite dE?: yes
EV protein Dars (Q922B2)
  RTV Direction Opposite dE?: yes
EV protein Dctn2 (Q99KJ8)
  RTV Direction Opposite dE?: yes
EV protein Ddx3x (Q62167)
  Abs Z Score Sum (Geno + RTV): 5.09
EV protein Ddx5 (Q61656)
  Abs Z Score Sum (Geno + RTV): 8.05
EV protein Ddx39b (Q9Z1N5)
  Abs Z Score Sum (Geno + RTV): 16.28
  RTV Direction Opposite dE?: yes
EV protein Dhx9 (Q70133)
  Abs Z Score Sum (Geno + RTV): 9.00
EV protein Dhx15 (Q35286)
  Abs Z Score Sum (Geno + RTV): 7.27
EV protein Efemp1 Q8BPB5
  Abs Z Score Sum (Geno + RTV): 8.34
EV protein Esyt1 (Q3U7R1)
  RTV Direction Opposite dE?: yes
EV protein Exoc4 (Q35382)
  Abs Z Score Sum (Geno + RTV): 14.59
  RTV Direction Opposite dE?: yes
EV protein Extended synaptotagmin-1 (Q3..)
  Abs Z Score Sum (Geno + RTV): 4.61
EV protein Fth1 P09528
  Abs Z Score Sum (Geno + RTV): 12.58
EV protein Fus (P56959)
  Abs Z Score Sum (Geno + RTV): 14.88
  RTV Direction Opposite dE?: yes
EV protein Gsto1 (Q09131)
  Abs Z Score Sum (Geno + RTV): 8.09
  RTV Direction Opposite dE?: yes
EV protein Hmen1 D3YXG0
  Abs Z Score Sum (Geno + RTV): 11.51
EV protein Hnrnpf (Q9Z2X1)
  RTV Direction Opposite dE?: yes
EV protein Hnrnph1 (Q35737)
  RTV Direction Opposite dE?: yes
EV protein Hnrnpl Q8R081
  Abs Z Score Sum (Geno + RTV): 9.12
EV protein Idh2 (P54071)
  Abs Z Score Sum (Geno + RTV): 26.73
EV protein Igf1r Q60751
  Abs Z Score Sum (Geno + RTV): 4.86
EV protein Impa1 (Q55023)
  RTV Direction Opposite dE?: yes
EV protein Ipo7 (Q9EPL8)
  Abs Z Score Sum (Geno + RTV): 5.25
  RTV Direction Opposite dE?: yes
EV protein Ipo11 (Q8K2V6)
  Abs Z Score Sum (Geno + RTV): 13.53
  RTV Direction Opposite dE?: yes
EV protein Itgb3 (Q54890)
  Abs Z Score Sum (Geno + RTV): 4.87
  RTV Direction Opposite dE?: yes
EV protein Itm2b Q89051
  Abs Z Score Sum (Geno + RTV): 17.16
EV protein Itpa (Q9D892)
  Abs Z Score Sum (Geno + RTV): 23.68
  RTV Direction Opposite dE?: yes
EV protein Kpna4 (Q35343)
  Abs Z Score Sum (Geno + RTV): 14.28
  RTV Direction Opposite dE?: yes
EV protein Lipg (Q9WVG5)
  Abs Z Score Sum (Geno + RTV): 11.27
EV protein Mdk (P12025)
  Abs Z Score Sum (Geno + RTV): 7.88
  RTV Direction Opposite dE?: yes
EV protein Mem2 P97310
  Abs Z Score Sum (Geno + RTV): 7.66
EV protein Mtap (Q9CQ65)
  Abs Z Score Sum (Geno + RTV): 8.12
EV protein Myo18a
  RTV Direction Opposite dE?: yes
EV protein Myo18a (Q9JM..)
  Abs Z Score Sum (Geno + RTV): 7.78
EV protein Nap114 Q78ZA7
  Abs Z Score Sum (Geno + RTV): 50.77
EV protein Nrbp1 (Q99..)
  Abs Z Score Sum (Geno + RTV): 9.54
EV protein Nrbp1 (Q99J45)
  RTV Direction Opposite dE?: yes
EV protein Otub1 (Q7TQ..)
  Abs Z Score Sum (Geno + RTV): 11.30
EV protein P09528, Ferritin heavy chain
  RTV Direction Opposite dE?: yes
EV protein P27612, Phospholipase A-2-activating protein
  RTV Direction Opposite dE?: yes
EV protein P48678 Prelamin-A C
  Abs Z Score Sum (Geno + RTV): 7.44
EV protein P61089, Ubiquitin-conjugating enzyme
  RTV Direction Opposite dE?: yes
EV protein Pdia4 (P08003)
  Abs Z Score Sum (Geno + RTV): 5.92
  RTV Direction Opposite dE?: yes
EV protein Penk (P22005)
  Abs Z Score Sum (Geno + RTV): 4.31
  RTV Direction Opposite dE?: yes
EV protein Plaa P27612
  Abs Z Score Sum (Geno + RTV): 12.45
EV protein Pld3 (Q35405)
  Abs Z Score Sum (Geno + RTV): 7.47
  RTV Direction Opposite dE?: yes
EV protein Prep Q9QUR6
  Abs Z Score Sum (Geno + RTV): 8.56
EV protein Prpf8 (Q99PV0)
  Abs Z Score Sum (Geno + RTV): 11.34
EV protein Psmd1 (Q3TXS7)
  Abs Z Score Sum (Geno + RTV): 7.84
EV protein Pura (P42669)
  Abs Z Score Sum (Geno + RTV): 6.04
  RTV Direction Opposite dE?: yes
EV protein Q6X893, Choline transporter-like protein 1
  RTV Direction Opposite dE?: yes
EV protein Q8BL97, Serine arginine-rich splicing factor 7
  RTV Direction Opposite dE?: yes
EV protein Q8C878, NEDD8-activating enzyme E1 catalytic subunit
  RTV Direction Opposite dE?: yes
EV protein Q8C878 NEDD8-activating enzyme .. subunit
  Abs Z Score Sum (Geno + RTV): 14.97
EV protein Q8CG19 Latent-transforming GF β-binding protein 1
  Abs Z Score Sum (Geno + RTV): 6.03
EV protein Q9D1M4 (Eukaryotic translation .. epsilon-1)
  Abs Z Score Sum (Geno + RTV): 20.67
EV protein Q9D1M4, Eukaryotic translation EF1 epsilon-1
  RTV Direction Opposite dE?: yes
EV protein Q9FS30, Complement C1q tumor necrosis factor-related protein 3
  RTV Direction Opposite dE?: yes
EV protein Q9Z1Z0, General vesicular transport factor p115
  RTV Direction Opposite dE?: yes
EV protein Q9Z2X1 Heterogeneous nuclear ribonucleoprotein E
  Abs Z Score Sum (Geno + RTV): 12.02
EV protein Q78ZA7, Nucelosome assembly protein 1-like 4
  RTV Direction Opposite dE?: yes
EV protein Q99KJ8 Dynactin subunit 2
  Abs Z Score Sum (Geno + RTV): 13.94
EV protein Q922B2 Aspartate--tRNA ligase
  Abs Z Score Sum (Geno + RTV): 12.17
EV protein Q01405 Protein transport protein .. 23A
  Abs Z Score Sum (Geno + RTV): 13.20
EV protein Q35737 Heterogeneous nuclear ribonucleoprotein H
  Abs Z Score Sum (Geno + RTV): 8.31
EV protein Q55023 Inositol monophosphatase 1
  Abs Z Score Sum (Geno + RTV): 14.51
EV protein Q60751, Insulin-like growth factor 1 receptor
  RTV Direction Opposite dE?: yes
EV protein Q60972 Histone-binding protein RBBP4
  Abs Z Score Sum (Geno + RTV): 18.10
EV protein Q89051, Integral membrane protein 2B
  RTV Direction Opposite dE?: yes
EV protein Qars (Q8BML9)
  Abs Z Score Sum (Geno + RTV): 13.17
  RTV Direction Opposite dE?: yes
EV protein Rab6a (P35279)
  Abs Z Score Sum (Geno + RTV): 6.80
  RTV Direction Opposite dE?: yes
EV protein Rbbp4 (Q60972)
  RTV Direction Opposite dE?: yes
EV protein Rpl22 (P67984)
  Abs Z Score Sum (Geno + RTV): 7.66
  RTV Direction Opposite dE?: yes
EV protein S100a11 (P50543)
  Abs Z Score Sum (Geno + RTV): 8.18
  RTV Direction Opposite dE?: yes
EV protein Scarb2 (Q35114)
  Abs Z Score Sum (Geno + RTV): 3.91
  RTV Direction Opposite dE?: yes
EV protein Sec23a (Q01405)
  RTV Direction Opposite dE?: yes
EV protein Sec31a (Q3..)
  Abs Z Score Sum (Geno + RTV): 8.41
EV protein Shrnt2 Q9CZN7
  Abs Z Score Sum (Geno + RTV): 11.93
EV protein Slc44a1 Q6X893
  Abs Z Score Sum (Geno + RTV): 3.67
EV protein Spp1 (P10923)
  Abs Z Score Sum (Geno + RTV): 11.35
